# Measurements taken from ChEMBL document CHEMBL3638657, “Substituted phenylureas and phenylamides as vanilloid receptor ligands” (2015).
# pKi: −log10 of the molar value.
# Experiments:
# [1] = molecular target: Transient receptor potential cation channel subfamily V member 1 (Rattus norvegicus, UniProt O35433); experiment: FLIPR Assay: The agonistic or antagonistic effect of the substances to be tested on the rat-species vanilloid receptor 1 (VR1/TRPV1) can be determined using the following assay. In this assay, the influx of Ca2+ through the receptor channel is quantified with the aid of a Ca2+-sensitive dye (type Fluo-4, Molecular Probes Europe BV, Leiden, the Netherlands) in a fluorescent imaging plate reader (FLIPR, Molecular Devices, Sunnyvale, USA).Method:Complete medium: 50 ml HAMS F12 nutrient mixture (Gibco Invitrogen GmbH, Karlsruhe, Germany) with10% by volume of FCS (foetal calf serum, Gibco Invitrogen GmbH, Karlsruhe, Germany, heat-inactivated);2 mM L-glutamine (Sigma, Munich, Germany);1% by weight of AA solution (antibiotic/antimyotic solution, PAA, Pasching, Austria) and 25 ng/ml NGF medium (2.5 S, Gibco Invitrogen GmbH, Karlsruhe, Germany).
# [2] = molecular target: Transient receptor potential cation channel subfamily V member 1 (Homo sapiens, UniProt Q8NER1); experiment: FLIPR Assay: The agonistic or antagonistic effect of the substances to be tested on the vanilloid receptor 1 (VR1) can also be determined using the following assay. In this assay, the influx of Ca2+ through the channel is quantified with the aid of a Ca2+-sensitive dye (type Fluo-4, Molecular Probes Europe BV, Leiden, the Netherlands) in a fluorescent imaging plate reader (FLIPR, Molecular Devices, Sunnyvale, USA).Method:Chinese hamster ovary cells (CHO K1 cells, European Collection of Cell Cultures (ECACC) United Kingdom) are stably transfected with the VR1 gene. For functional testing, these cells are plated out on poly-D-lysine-coated black 96-well plates having a clear base (BD Biosciences, Heidelberg, Germany) at a density of 25,000 cells/well. The cells are incubated overnight at 37 C. and 5% CO2 in a culture medium (Ham's F12 nutrient mixture, 10% by volume of FCS (foetal calf serum), 18 ug/ml of L-proline). The next day the cells are incubated with Fluo-4.; format: cell-based
# Sequence of Transient receptor potential cation channel subfamily V member 1 (Homo sapiens, UniProt Q8NER1) (Q8NER1 whole entry): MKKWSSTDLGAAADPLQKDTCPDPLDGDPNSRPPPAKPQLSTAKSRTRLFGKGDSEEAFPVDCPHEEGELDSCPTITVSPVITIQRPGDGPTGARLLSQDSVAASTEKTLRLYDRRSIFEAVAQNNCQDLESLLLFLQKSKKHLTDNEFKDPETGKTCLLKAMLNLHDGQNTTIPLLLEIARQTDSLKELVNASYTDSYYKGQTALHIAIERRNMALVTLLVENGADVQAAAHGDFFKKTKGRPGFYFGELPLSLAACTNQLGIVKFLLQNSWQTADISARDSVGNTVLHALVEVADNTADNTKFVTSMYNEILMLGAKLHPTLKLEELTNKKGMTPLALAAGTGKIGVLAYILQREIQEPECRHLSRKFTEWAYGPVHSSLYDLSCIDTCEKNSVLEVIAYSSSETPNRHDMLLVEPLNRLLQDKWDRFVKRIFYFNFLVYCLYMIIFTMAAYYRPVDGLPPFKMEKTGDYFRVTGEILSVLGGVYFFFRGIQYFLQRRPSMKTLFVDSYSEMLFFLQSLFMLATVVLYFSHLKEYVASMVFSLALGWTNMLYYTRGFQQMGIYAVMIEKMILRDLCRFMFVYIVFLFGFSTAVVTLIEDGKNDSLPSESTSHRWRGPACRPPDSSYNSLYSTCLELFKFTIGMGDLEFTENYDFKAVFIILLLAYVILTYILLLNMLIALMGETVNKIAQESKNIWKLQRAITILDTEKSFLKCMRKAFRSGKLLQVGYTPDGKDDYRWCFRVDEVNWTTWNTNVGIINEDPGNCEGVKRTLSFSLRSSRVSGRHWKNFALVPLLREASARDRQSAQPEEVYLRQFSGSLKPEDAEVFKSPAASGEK
# Sequence of Transient receptor potential cation channel subfamily V member 1 (Rattus norvegicus, UniProt O35433) (O35433 whole entry): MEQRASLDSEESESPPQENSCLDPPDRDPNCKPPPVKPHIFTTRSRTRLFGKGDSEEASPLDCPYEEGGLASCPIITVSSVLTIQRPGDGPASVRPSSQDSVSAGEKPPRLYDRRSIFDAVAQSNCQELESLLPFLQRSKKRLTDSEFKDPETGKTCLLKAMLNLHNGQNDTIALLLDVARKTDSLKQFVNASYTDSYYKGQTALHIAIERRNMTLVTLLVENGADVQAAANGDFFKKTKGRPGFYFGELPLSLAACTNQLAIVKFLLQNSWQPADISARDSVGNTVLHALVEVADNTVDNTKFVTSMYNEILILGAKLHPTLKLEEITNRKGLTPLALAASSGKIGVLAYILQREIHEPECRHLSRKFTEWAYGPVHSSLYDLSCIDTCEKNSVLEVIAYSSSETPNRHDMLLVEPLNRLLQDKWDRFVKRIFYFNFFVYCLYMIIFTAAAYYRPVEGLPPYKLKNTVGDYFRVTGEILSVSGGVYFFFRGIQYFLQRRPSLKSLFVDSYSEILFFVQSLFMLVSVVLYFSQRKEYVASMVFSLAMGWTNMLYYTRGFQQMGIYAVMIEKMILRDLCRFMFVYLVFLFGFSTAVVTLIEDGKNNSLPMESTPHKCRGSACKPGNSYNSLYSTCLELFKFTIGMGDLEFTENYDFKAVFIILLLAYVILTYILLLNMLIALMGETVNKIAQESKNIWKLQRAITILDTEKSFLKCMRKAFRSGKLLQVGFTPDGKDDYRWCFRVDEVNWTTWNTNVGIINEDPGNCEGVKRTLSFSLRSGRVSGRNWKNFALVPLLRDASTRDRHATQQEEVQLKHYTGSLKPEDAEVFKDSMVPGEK
compound,measurement,setting,value
Cc1ccc(-n2nc(C(C)(C)C)cc2CNC(=O)C(C)c2ccc(NS(C)(=O)=O)c(F)c2)cc1 (configuration not stated),pKi,[1],8.23
same,pKi,[2],8.10
